Where two headings read alike, the source gives them in different places.

In data set [1] the test system is Ctenocephalides felis. Briefly: Ctenocephalides felis oral test. Particulars: 100 ppm in citrated cattle blood; after 2 days. The data set is classed as in vivo.
For data set [2], the system named is Boophilus microplus. Description: Boophilus microplus injection test. In kind it is in vivo. Particulars: 20 μg/animal; assessed after 7 days. The method, then:
(§1) • Solvent: dimethyl sulfoxide
1 μl of the active ingredient solution is injected into the abdomen of 5 engorged adult female cattle ticks (Boophilus microplus). The animals are transferred into dishes and kept in a climate-controlled room.

For data set [3], the system named is Tetranychus urticae. Description: Tetranychus urticae spray test, OP-resistant (bean leaf discs). In kind it is in vivo. Particulars: 100 g/ha; after 6 days. Here is the method:
(§2) After 6 days, the efficacy in % is determined.

Data set [4] concerns Spodoptera frugiperda. Briefly: Spodoptera frugiperda spray test. In kind it is in vivo. Particulars: 100 g/ha, after 7 days; for pest or weed control at 100 g/ha: Spodoptera frugiperda, 168 h, read-out: efficacy.
For data set [5], the system named is Phaedon cochleariae. Description: Phaedon cochleariae spray test. Particulars: for pest or weed control at 100 g/ha: Phaedon cochleariae, 168 h, read-out: efficacy; for efficacy: 100 g/ha, after 7 days.
The test system of data set [6] is Musca domestica. Description: Musca domestica test. Particulars: 100 ppm; adult houseflies; after 2 days. The data set is classed as in vivo. Here is the method: as §1
To produce a suitable active ingredient formulation, 10 mg of active ingredient are mixed with 0.5 ml of dimethyl sulfoxide, and the concentrate is diluted with water to the desired concentration.
Vessels containing a sponge treated with sugar solution and the active ingredient formulation of the desired concentration are populated with 10 adult houseflies (Musca domestica).

Data set [7] deals with Ctenocephalides felis. Description: Ctenocephalides felis in vitro contact test with adult cat fleas. The data set is classed as in vivo. Particulars: application rate 5 μg/cm^2 (=500 g/ha); after 48 h; dead or moribund fleas. In a few lines: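 Glass tubes were coated with compound in acetone (900 ppm solution gives 5 μg/cm²), dried, then loaded with 5–10 adult cat fleas. Held horizontal at room temperature and ambient humidity for 48 h. Efficacy is the % of fleas dead or moribund (motionless or uncoordinated after knock-down).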

Data set [8] has as its system Myzus persicae. Briefly: Myzus persicae spray test (Chinese cabbage leaf discs). In kind it is in vivo. Particulars: 100 g/ha; after 6 days. Here is the method: as §2
Data set [9] relates to Meloidogyne incognita. Description: Meloidogyne incognita test. The data set is classed as in vivo. Particulars: 20 ppm; after 14 days. The method, then: • Solvent: 125.0 parts by weight of acetone
To produce a suitable active compound preparation, 1 part by weight of active compound is mixed with the stated amount of solvent and the concentrate is diluted to the desired concentration with water.
Vessels are filled with sand, active compound solution, an egg/larvae suspension of the southern root-knot nematode (Meloidogyne incognita) and lettuce seeds. The lettuce seeds germinate and the plants develop. The galls develop on the roots.
After 14 days, the nematicidal efficacy in % is determined by the formation of galls. 100% means that no galls were found; 0% means that the number of galls on the treated plants corresponds to the untreated control.

For data set [10], the system named is Rhipicephalus sanguineus. Briefly: Rhipicephalus sanguineus in vitro contact test with adult brown dog ticks. The data set is classed as in vivo. Particulars: application rate 5 μg/cm^2 (=500 g/ha); after 48 h; dead or moribund ticks. In a few lines:
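Adult Rhipicephalus sanguineus (5-10 per tube) held in glass tubes coated with compound from acetone solution, 900 ppm giving 5 μg/cm^2, in the dark at room temperature. After 48 h ticks put on a 45-50° C hotplate up to 5 min; motionless or uncoordinated ticks scored dead/moribund as % efficacy.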

Where [11] appears, read: reversed-phase C18 HPLC column, logP, HPLC, C18, acetonitrile/water with formic acid (note a).
Where [12] appears, read: reversed-phase C18 HPLC column, logP^a, HPLC-MS method a).

Turning to `N#CCC(=O)NCc1cc(-c2cnn(-c3c(Cl)cc(C(F)(C(F)(F)F)C(F)(F)F)cc3Br)c2)ccc1Cl` [Ia-137, N-(5-{1-[2-bromo-6-chloro-4-(1,1,1,2,3,3,3-heptafluoropropan-2-yl)phenyl]-1H-pyrazol-4-yl}-2-chlorobenzyl)-2-cyanoacetamide], the “efficacy (rate of extermination)” value in [1] and in data set [6] was 100% in each case. For the same compound, the “efficacy (laying of fertile eggs)” value in data set [2] came to 100%. The efficacy in data set [3] and in data set [7] was 100% in each case. Moreover, the chromatographic logP (in general, lipophilicity estimated from chromatographic retention) is, setting by setting: under setting [11], 4.28; (reversed-phase C18 HPLC column, logP^a, HPLC-MS method a), reversed-phase column (C18)) 4.33. The pest or weed control at 100 g/ha in data set [4] and in [5] was 100% each time.

Under setting [11], `CCS(=O)(=O)N(C)Cc1cc(-c2cnn(-c3c(Cl)cc(C(F)(C(F)(F)F)C(F)(F)F)cc3Cl)c2)ccc1Cl` [Ic-03, N-(2-chloro-5-{1-[2,6-dichloro-4-(1,1,1,2,3,3,3-heptafluoropropan-2-yl)phenyl]-1H-pyrazol-4-yl}benzyl)-N-methylethanesulfonamide] had a chromatographic logP of 5.21. Further, the pest or weed control at 100 g/ha in data set [4] and in [5] was 100% each time.

Regarding `CC(=O)NCc1cc(-c2cnn(-c3c(Cl)cc(C(F)(C(F)(F)F)C(F)(F)F)cc3C#N)c2)ccc1F` [Ia-105], the efficacy is reported as 100% in data set [3], 90% in [8], 100% in [4] and 100% in [5]. Besides, in data set [9], the “nematicidal efficacy (formation of galls)” value (“nematicidal efficacy” for short) stood at 90%.

In the case of `CCS(=O)(=O)NCc1cc(-c2cnn(-c3c(Cl)cc(C(F)(C(F)(F)F)C(F)(F)F)cc3Cl)c2)ccc1Cl` [Ic-02, N-(2-chloro-5-{1-[2,6-dichloro-4-(1,1,1,2,3,3,3-heptafluoropropan-2-yl)phenyl]-1H-pyrazol-4-yl}benzyl)ethanesulfonamide], the chromatographic logP under setting [11] came out at 4.65. The pest or weed control at 100 g/ha in data set [4] and in [5] was 100% in each case.

For `CC(=O)NCc1cc(-c2cn(-c3c(Cl)cc(C(F)(C(F)(F)F)C(F)(F)F)cc3Cl)nn2)ccc1Cl` [I-T7-01, N-(2-chloro-5-{1-[2,6-dichloro-4-(1,1,1,2,3,3,3-heptafluoropropan-2-yl)phenyl]-1H-1,2,3-triazol-4-yl}benzyl)acetamide], in [3], the efficacy was 90%. The compound also came in with a chromatographic logP under setting [11] of 3.94. Besides, the pest or weed control at 100 g/ha in data set [4] and in [5] was 100% in each case.

For the compound `CCC(=O)NCc1cccc(-c2cnn(-c3c(Cl)cc(C(F)(C(F)(F)F)C(F)(F)F)cc3Cl)c2)c1` [Ia-08], the “efficacy (rate of extermination)” value in data set [1] stood at 100%; in data set [6], 80%. The “efficacy (laying of fertile eggs)” value in data set [2] was 100%. Besides, the efficacy came to 90% in data set [3]; 80% in data set [10]; 100% in data set [4]; 100% in data set [5]; 100% in [7]. Besides, the “nematicidal efficacy” value in data set [9] is 100%.

For `CC(=O)N(C)Cc1cccc(-c2cnn(-c3c(Cl)cc(C(F)(C(F)(F)F)C(F)(F)F)cc3Cl)c2)c1` [Ia-42], the “efficacy (rate of extermination)” value in data set [1] was determined as 100%; in [6], 80%. The “efficacy (laying of fertile eggs)” value in data set [2] came out at 100%. The efficacy in data set [3] and in data set [5] was 100% in each case. Also, the “nematicidal efficacy” value in data set [9] is given as 90%.

With `CCC(=O)NCc1cc(-c2cnn(-c3c(Cl)cc(C(F)(C(F)(F)F)C(F)(F)F)cc3SC)c2)ccc1F` [Ia-10, N-(5-{1-[2-chloro-4-(1,1,1,2,3,3,3-heptafluoropropan-2-yl)-6-(methylsulfanyl)phenyl]-1H-pyrazol-4-yl}-2-fluorobenzyl)propanamide], the “efficacy (rate of extermination)” value in data set [1] and in data set [6] was 100% throughout. Besides, the “efficacy (laying of fertile eggs)” value in data set [2] came to 100%. Further, the efficacy in data set [3], in data set [10] and in data set [7] was 100% in each case. For the same compound, the chromatographic logP runs as follows: under setting [11], 4.29; under setting [12], 4.29. Also, the pest or weed control at 100 g/ha in data set [4] and in data set [5] was 100% each time.

`CC(=O)NCc1cc(-c2cnn(-c3c(Cl)cc(C(F)(C(F)(F)F)C(F)(F)F)cc3C(F)F)c2)ccc1F` [Ia-34]: the efficacy was 100% in data set [3], 90% in data set [8], 100% in data set [4] and 100% in [5]. Further, the “nematicidal efficacy” value in [9] is recorded as 100%.

On to `CC(=O)N(C)Cc1cc(-c2cnn(-c3c(Cl)cc(C4(C(F)(F)F)CC4)cc3Cl)c2)ccc1F` [Ia-125], for which the “nematicidal efficacy” value in data set [9] was found to be 100%.

Turning to `CCC(=O)NCc1cc(-c2cnn(-c3c(Cl)cc(C(F)(C(F)(F)F)C(F)(F)F)cc3[S+](C)[O-])c2)ccc1F` (stereo not shown) [Ia-45, N-(5-{1-[2-chloro-4-(1,1,1,2,3,3,3-heptafluoropropan-2-yl)-6-(methylsulfinyl)phenyl]-1H-pyrazol-4-yl}-2-fluorobenzyl)propanamide], the chromatographic logP runs as follows: under setting [11], 3.52; under setting [12], 3.52. Besides, the pest or weed control at 100 g/ha in [5] worked out at 100%.

With `CCC(=O)NCc1c(F)ccc(-c2cnn(-c3c(Cl)cc(C(F)(C(F)(F)F)C(F)(F)F)cc3C(F)F)c2)c1F` [Ia-141], the “efficacy (rate of extermination)” value in data set [1] and in [6] was 100% each time. For the same compound, the “efficacy (laying of fertile eggs)” value in [2] worked out at 100%. Moreover, the efficacy in data set [3], in [10], in [4] and in [5] was 100% each time. Further, in data set [9], the “nematicidal efficacy” value is 90%.

`CCC(=O)NCc1cc(-c2cnn(-c3c(Cl)cc(C(F)(C(F)(F)F)C(F)(F)F)cc3S(C)(=O)=O)c2)ccc1F` [Ia-46, N-(5-{1-[2-chloro-4-(1,1,1,2,3,3,3-heptafluoropropan-2-yl)-6-(methylsulfonyl)phenyl]-1H-pyrazol-4-yl}-2-fluorobenzyl)propanamide] yielded an efficacy in data set [3] of 70%. Moreover, the chromatographic logP under setting [11] is 3.65 and the chromatographic logP under setting [12] worked out at 3.65.

In the case of `CCC(=O)NC1CCc2ccc(-c3cnn(-c4c(Cl)cc(C(F)(C(F)(F)F)C(F)(F)F)cc4OC(F)(F)F)c3)cc21` (stereo not shown) [I-Tc-01, N-(6-{1-[2-chloro-4-(1,1,1,2,3,3,3-heptafluoropropan-2-yl)-6-(trifluoromethoxy)phenyl]-1H-pyrazol-4-yl}-2,3-dihydro-1H-inden-1-yl)propanamide], the “efficacy (rate of extermination)” value in [1] is reported as 100%. The “efficacy (laying of fertile eggs)” value in data set [2] is reported as 100%. Under setting [11], the chromatographic logP stood at 4.84. Besides, the efficacy in [10] was found to be 100%. The pest or weed control at 100 g/ha in data set [4] was 100%.

As for `CC(=O)NCc1cccc(-c2cnn(-c3c(Cl)cc(C(F)(C(F)(F)F)C(F)(F)F)cc3C#N)c2)c1` [Ia-102], the efficacy in [3] was determined as 90%; in [5], 100%. In addition, in data set [9], the “nematicidal efficacy” value turned out to be 100%.

As for `O=C(NCc1cc(-c2cnn(-c3c(Cl)cc(C(F)(C(F)(F)F)C(F)(F)F)cc3Cl)c2)ccc1Cl)C1CC1` [Ia-25, N-(2-chloro-5-{1-[2,6-dichloro-4-(1,1,1,2,3,3,3-heptafluoropropan-2-yl)phenyl]-1H-pyrazol-4-yl}benzyl)cyclopropanecarboxamide], the “efficacy (rate of extermination)” value in [1] and in data set [6] was 100% in each case. Further, the “efficacy (laying of fertile eggs)” value in data set [2] came out at 100%. Further, the chromatographic logP is 4.8 under setting [11] and 4.8 under setting [12]. The results for the efficacy in [10] and in data set [7] were 80% and 100%, respectively. Also, in data set [4], the pest or weed control at 100 g/ha worked out at 100%.
